Assay results published in PubChem BioAssay AID1996.
Values after ≈ are worked out from the molar mass of the structure shown.

Conditions: buffer; pH 7.4; 200.0 µM

| SMILES | solubility kinetic |
| --- | --- |
| CCOc1ccccc1NC(=O)COC(=O)c1cc(C)oc1C | 2.2 µg/mL (≈ 6.93 µM) |
| O=C(O)C(=O)O.c1ccc2c(OCCCN3CCCCCC3)cccc2c1 | 32.8 µg/mL |
| COc1ccc(C(=O)Nc2ccc3ncccc3c2)cc1 | 12.1 µg/mL (≈ 43.5 µM) |
| CCOc1ccccc1N=CC1=C(O)CC(c2ccccc2)CC1=O (stereo unspecified) | 3.4 µg/mL (≈ 10.1 µM) |
| CN1C(=O)N(C)c2ccc(Br)c3cccc1c23 | < 0.3 µg/mL |
| CC(=O)c1sc(NC(=O)c2cccc(C)c2)nc1C | 16.8 µg/mL (≈ 61.2 µM) |
| O=C(Nc1nccs1)c1ccc(-c2ccccc2[N+](=O)[O-])o1 | 5.6 µg/mL (≈ 17.8 µM) |
| OCCNCCCOc1cc(Cl)ccc1Cl | 31.9 µg/mL (≈ 121 µM) |
| O=C(NCCC(=O)N1CCN(c2ccccn2)CC1)c1ccc([N+](=O)[O-])cc1 | > 57.5 µg/mL |
| N#Cc1c(Cl)cccc1N1CCC(C(N)=O)CC1 | > 39.6 µg/mL |
| Cn1c(N)c(C(=O)c2ccc(Cl)c(S(=O)(=O)N3CCCCCC3)c2)c(=O)n(C)c1=O | > 68.2 µg/mL |
| CCOCCOc1cccc(C(=O)NC(C)c2ccc3ccccc3c2)c1 (stereo unspecified) | 1.6 µg/mL (≈ 4.4 µM) |
| COc1ccc(N2CCN(C(=O)Cc3ccc(Cl)cc3)CC2)cc1 | 50.1 µg/mL (≈ 145 µM) |
| N#Cc1ccc(C(=O)NCCCSc2ccccc2)cc1 | 6.4 µg/mL (≈ 21.6 µM) |
| Cc1ccc(NC(=O)Nc2ccccc2)nc1 | 2.6 µg/mL (≈ 11.4 µM) |
| O=C(NCC1CCCO1)c1ccc(NC(=O)c2cccc([N+](=O)[O-])c2)cc1 (stereo unspecified) | 3.5 µg/mL (≈ 9.48 µM) |
| Nc1nnc(SCC(=O)N2CCCCC2)s1 | > 38.8 µg/mL |
| O=C(COC(=O)CCC(=O)c1cccs1)Nc1ccccc1C(F)(F)F | > 57.8 µg/mL |
| COc1cc(C)ccc1Oc1nc(-c2ccccc2O)nc2ccccc12 | < 0.4 µg/mL |
| O=C(O)c1cc(-c2ccc3ccccc3c2)nc2ccc(F)cc12 | > 47.6 µg/mL |
| CC1CC(C)CN(C(=O)c2cccc(S(=O)(=O)NCc3ccccc3)c2)C1 (stereo unspecified) | > 58 µg/mL |
| CSC1=N/C(=C/c2cccnc2)C(=O)N1Cc1ccc(Cl)cc1 | 1.1 µg/mL (≈ 3.2 µM) |
| O=C(CSc1nnc2ccccn12)NCCc1ccc(F)cc1 | > 49.6 µg/mL |
| O=C(COC(=O)c1ccncc1)c1ccccc1 | > 36.2 µg/mL |
| O=C(Nc1ccccc1N1CCCC1)c1cccc(F)c1 | > 42.6 µg/mL |

| SMILES | solubility kinetic |
| --- | --- |
| O=S(=O)([O-])CCC[n+]1ccc(Oc2ccccc2)cc1 | 21 µg/mL (≈ 71.6 µM) |
| CCN1C(=O)c2ccc(C(=O)NCc3ccco3)cc2C1=O | > 44.7 µg/mL |
| CC1(C)C2CCC(C2)C1(C)NC(=O)CN1CCCC1.Cl (stereo unspecified) | > 45.1 µg/mL |
| COc1ccccc1NC(=O)c1cc(C)oc1C | > 36.8 µg/mL |
| O=C(Cc1cccs1)N1CCN=C1SCc1ccccc1Cl | 6.6 µg/mL (≈ 18.8 µM) |
| Cc1ccc(NC2=C(Cl)C(=O)OC2OC(=O)c2ccc(C)cc2)cc1 (stereo unspecified) | 2.6 µg/mL (≈ 7.27 µM) |
| NC(=O)C1CCN(S(=O)(=O)Cc2ccccc2Cl)CC1 | > 47.5 µg/mL |
| COC(=O)C1CCN(Cc2cc(=O)oc3cc(C)c(Cl)cc23)CC1 | 4.7 µg/mL (≈ 13.4 µM) |
| Cc1nc(/C(N)=N/OC(=O)c2ccc(Cl)cc2)c(C(F)(F)F)o1 | 17 µg/mL (≈ 48.9 µM) |
| Cc1ccccc1OCC(=O)NCCCNC(=O)c1ccncc1 | 39.8 µg/mL (≈ 122 µM) |
| CN1CCN(C(=O)/C(=C\c2cccs2)NC(=O)c2ccccc2)CC1 | > 53.3 µg/mL |
| CCOc1ccc(S(=O)(=O)NC2CCCC2)cc1 | 18.3 µg/mL (≈ 67.9 µM) |
| O=C(NCCc1ccc(Cl)cc1)c1ccc2nccnc2c1 | 4.8 µg/mL (≈ 15.4 µM) |
| O=C(CSC(=S)N1CCSCC1)c1ccc(Cl)cc1 | < 0.7 µg/mL |
| CCC(=O)OCCNc1cc(SCCC(=O)OC)c2nonc2c1[N+](=O)[O-] | 54.9 µg/mL (≈ 138 µM) |
| O=C(N/N=C/c1cccc(O)c1)c1ccccc1O | > 38.4 µg/mL |
| Cc1ccccc1CN(C)CCc1ccccn1.O=C(O)C(=O)O | 25.6 µg/mL |
| CC(=O)c1sc2nsc(SCCN3CCCCC3)c2c1N | 47.5 µg/mL (≈ 139 µM) |
| Cc1ccc(CN2CC(C(=O)Nc3ccc(C)cn3)CC2=O)cc1 (stereo unspecified) | > 48.5 µg/mL |
| CCOC(=O)C(Cc1ccccc1)C(=O)NCc1ccccc1 (stereo unspecified) | > 46.7 µg/mL |
| COc1ccc2c(c1)c(C(=O)O)c(C)n2CCc1ccc(OC)c(OC)c1 | > 55.4 µg/mL |
| Cl.c1ccc(CN2CCNCC2)nc1 | 30.1 µg/mL |
| CN(C)S(=O)(=O)c1ccc(=S)[nH]c1 | 12.2 µg/mL (≈ 55.9 µM) |
| Cc1cccc(N2CCN(Cc3nc(C4CC4)no3)CC2)n1 | 37.8 µg/mL (≈ 126 µM) |
| Cc1ccc(CNc2ncc(-c3ccccc3)n2C)o1.O=C(O)C(=O)O | > 53.6 µg/mL |

| SMILES | solubility kinetic |
| --- | --- |
| Cc1ccc(NC(=O)CNc2cc(S(=O)(=O)N3CCOCC3)ccc2N2CCOCC2)cc1S(=O)(=O)N(C)C | 5.3 µg/mL (≈ 9.11 µM) |
| Cc1ccc(NC(=O)C/C(N)=N/O)cc1Cl | > 36.3 µg/mL |
| CC1CCC(NS(=O)(=O)c2cccc3nsnc23)CC1 (stereo unspecified) | > 46.7 µg/mL |
| O=c1[nH]c(=O)n(C2CCCCCC2)c(O)c1C=NCc1cccnc1 | 8.2 µg/mL (≈ 23.9 µM) |
| COc1ccccc1NC(=S)N1CCCCCC1 | > 39.7 µg/mL |
| CC(C)(C)NC(=O)COc1ccc(S(=O)(=O)N2CCCC2)cc1 | > 51.1 µg/mL |
| N#Cc1ccccc1OCC(=O)C1CC1 | 28.4 µg/mL (≈ 141 µM) |
| CC(=O)Cc1nsc(NC(=O)c2ccc(F)cc2)n1 | > 41.9 µg/mL |
| CSc1ncccc1C(=O)NC1CCCCCC1 | 35.5 µg/mL (≈ 134 µM) |
| CCOc1ccccc1CNCC1CCCO1.Cl (stereo unspecified) | 31.5 µg/mL |
| CC(C)C(NC(=O)C1CCCCC1)C(=O)NC1CCCC(C)C1C (stereo unspecified) | 3.9 µg/mL (≈ 11.6 µM) |
| COC(=O)CSc1nc(C)cc(C)n1 | > 31.8 µg/mL |
| Cc1ccc(NC(=O)NCCN2CCCCC2)cc1Cl | > 44.4 µg/mL |
| CC(=O)Nc1ccc(CC(=O)O)cc1 | > 29 µg/mL |
| CCCOc1ccc(/C=C/c2c([N+](=O)[O-])c(=O)n(C)c(=O)n2C)cc1 | < 0.2 µg/mL |
| Nc1nc2ccccc2n1CCOc1ccc(Br)cc1 | 27.2 µg/mL (≈ 81.9 µM) |
| Cc1cc2ncn(C(=O)c3ccc(F)cc3)c2cc1C | 21.6 µg/mL (≈ 80.5 µM) |
| COc1cc(OC)cc(C(=O)NCc2ccc3[nH]c(C)cc3c2)c1 | 3.3 µg/mL (≈ 10.2 µM) |
| O=C(Cc1ccc(Cl)cc1)NNC(=O)C1CC=CCC1C(=O)O (stereo unspecified) | > 50.5 µg/mL |
| N#C/C(=C\c1c(F)cccc1Cl)S(=O)(=O)c1ccccn1 | 36.2 µg/mL (≈ 112 µM) |
| CC(CCc1ccccc1)NC(=O)CC(C)c1ccccc1 (stereo unspecified) | 43.4 µg/mL (≈ 147 µM) |
| Cl.OC(CNCc1ccc(Cl)c(Cl)c1)c1ccccc1 (stereo unspecified) | 47.7 µg/mL |
| Cc1ccc(S(=O)(=O)N2CCCCC2)cc1NC(=O)Cc1cccs1 | 20.6 µg/mL (≈ 54.4 µM) |
| Cc1nc2ccc(NS(=O)(=O)c3cccc([N+](=O)[O-])c3)cc2s1 | > 52.4 µg/mL |
| CCC1(C)NC(C(=O)O)Cc2c1[nH]c1ccccc21 (stereo unspecified) | > 38.7 µg/mL |

| SMILES | solubility kinetic |
| --- | --- |
| CC1CC(C)CN(C(=O)COC(=O)c2ccc(N3CCCC3=O)cc2)C1 (stereo unspecified) | > 53.8 µg/mL |
| Fc1ccc(NC(=S)Nc2cccnc2)c(Cl)c1 | > 42.3 µg/mL |
| O=C(NCCc1ccc(Cl)cc1)C1CCCO1 (stereo unspecified) | > 38.1 µg/mL |
| c1ccc(-c2ccc(CN3CCSCC3)cc2)cc1 | 1.7 µg/mL (≈ 6.31 µM) |
| CCOc1ccc(C(=S)N2CCCC2)c(OCC)c1 | > 41.9 µg/mL |
| C=CCOc1nc(-c2ccccc2Cl)nc2ccccc12 | 0.7 µg/mL (≈ 2.36 µM) |
| CCOC(=O)C1CNc2cc(S(=O)(=O)CC)ccc2O1 (stereo unspecified) | > 44.9 µg/mL |
| Cc1cccc(C(=O)O)c1NC(=O)Cc1cccc2ccccc12 | > 47.9 µg/mL |
| Cc1c(NS(=O)(=O)c2cccc(C(=O)N3CCC(C(N)=O)CC3)c2)c(=O)n(-c2ccccc2)n1C | > 74.6 µg/mL |
| COC(=O)C1=C(C)NC(=O)NC1c1ccc2c(c1)OCO2 (stereo unspecified) | 37.3 µg/mL (≈ 128 µM) |
| N=c1oc2ccccc2cc1C(=O)Nc1ccc(F)cc1 | 0.6 µg/mL (≈ 2.13 µM) |
| O=C(Nc1ccccc1)N(c1ccccc1)C1C=CS(=O)(=O)C1 (stereo unspecified) | > 49.3 µg/mL |
| O=C1CCCC(O)=C1C=NCc1ccccc1 | > 34.4 µg/mL |
| CCc1ccc(N2CC(C(=O)N3CCCCCC3)CC2=O)cc1 (stereo unspecified) | > 47.2 µg/mL |
| O=C(NCc1cccc(Cl)c1)c1ccncc1 | > 37 µg/mL |
| CN(C)CCCN1C(=O)c2cccc3cccc(c23)C1=O | > 42.4 µg/mL |
| CN(C)Cc1cc(C(C)(C)C)cc(C(C)(C)C)c1O | 0.8 µg/mL (≈ 3.04 µM) |
| CN(c1ccccc1)c1nc(N)c([N+](=O)[O-])c(NC2CCCCC2)n1 | < 0.1 µg/mL |
| CCNC(=O)C1CCCN(c2nc(C)cc(C)n2)C1 (stereo unspecified) | > 39.4 µg/mL |
| CC(CCc1ccccc1)NC(=O)c1ccc(Br)cc1 (stereo unspecified) | 1.1 µg/mL (≈ 3.31 µM) |
| CC1CCCN(CC(=O)c2ccc(Cl)c(Cl)c2)C1 (stereo unspecified) | 26 µg/mL (≈ 90.8 µM) |
| O=C(COc1cccnc1[N+](=O)[O-])c1ccc(Cl)s1 | 37.2 µg/mL (≈ 125 µM) |
| O=C(Nc1nc2ccccc2[nH]1)c1cccc(F)c1 | 6.6 µg/mL (≈ 25.9 µM) |
| CC(C)CCN(C(=S)Nc1cccc(F)c1)C(C)c1cccs1 (stereo unspecified) | 3.2 µg/mL (≈ 9.13 µM) |
| COc1cccc(NC(=O)COC(=O)CCSc2ccccc2)c1 | 39.8 µg/mL (≈ 115 µM) |

| SMILES | solubility kinetic |
| --- | --- |
| CC1CCN(C(=O)CC(NC(N)=O)c2ccccc2Cl)CC1 (stereo unspecified) | 44.2 µg/mL (≈ 136 µM) |
| O=C(NCCc1ccccc1)C1CCC(=O)N1C1CCCC1 (stereo unspecified) | > 45.1 µg/mL |
| CCc1ccccc1NC(=O)c1cnn(-c2ccccc2)c1C | > 45.8 µg/mL |
| Cc1ccc(NC(=O)C2OCCc3ccccc32)cc1Cl (stereo unspecified) | < 0.6 µg/mL |
| COc1ccc(Cl)cc1NC(=O)CN(C)C(=O)c1cccc(S(=O)(=O)N2CCN(C)CC2)c1 | 67.4 µg/mL (≈ 136 µM) |
| CCC1(CC)C(=O)N(C)C(=O)NC1=NC | > 31.7 µg/mL |
| O=S(=O)(NCCc1ccccc1)c1cccs1 | 34 µg/mL (≈ 127 µM) |
| Cc1cc(C)cc(NC(=O)c2ccc([N+](=O)[O-])o2)c1 | 8.3 µg/mL (≈ 31.9 µM) |
| COc1cc2c(cc1OC)C(c1ccccc1C(F)(F)F)CC(=O)N2 (stereo unspecified) | < 0.8 µg/mL |
| O=C(c1ccc(Sc2ccccc2)c([N+](=O)[O-])c1)N1CCOCC1 | 49.9 µg/mL (≈ 145 µM) |
| Cc1ccc(S(=O)(=O)NC(C)C(=O)NC(C)c2cccs2)cc1 (stereo unspecified) | 51.6 µg/mL (≈ 146 µM) |
| COC(=O)c1cc2c(=O)c3ccccc3oc2nc1C | 5.4 µg/mL (≈ 20.1 µM) |
| COc1ccc(C(CNC(=O)c2cc(C)on2)N(C)C)cc1 (stereo unspecified) | 45.3 µg/mL (≈ 149 µM) |
| COCCN(CCOC)S(=O)(=O)c1ccc(Cl)nc1 | 45.3 µg/mL (≈ 147 µM) |
| Cl.Cn1cccc1CNCC(O)c1ccccc1 (stereo unspecified) | > 40 µg/mL |
| COc1ccccc1C1(O)C(=O)Nc2ccccc21 (stereo unspecified) | > 38.3 µg/mL |
| Cn1cccc1C(C#N)(CC#N)c1cccc(F)c1C#N (stereo unspecified) | 40.4 µg/mL (≈ 145 µM) |
| CC(C)n1cc(C(N)=S)c(=O)n(Cc2ccccc2)c1=O | 9.1 µg/mL (≈ 30 µM) |
| O=C(NC1CC(=O)c2sccc21)c1cccc(C(F)(F)F)c1 (stereo unspecified) | > 48.8 µg/mL |
| CCNC(=O)NC(=O)C(C)OC(=O)c1cccn1C (stereo unspecified) | > 40.1 µg/mL |
| CCCCNC1c2ccccc2C(=O)N1Cc1ccccc1.Cl (stereo unspecified) | 47.5 µg/mL |
